From ChEMBL document CHEMBL1159182, “SAR of cocaine: further exploration of structural variations at the C-2 center provides compounds of subnanomolar binding potency” (Bioorg Med Chem Lett, 1993)
“And” between values parts separate entries of the source, which are not always exact repeats. Identical values can stand only once.

Key:
[1] = molecular target: T1, Sodium-dependent dopamine transporter (Homo sapiens, UniProt Q01959); test: Inhibitory concentration against [3H]dopamine uptake; type: functional
[2] = molecular target: T1, Sodium-dependent dopamine transporter; test: Displacement of [3H]mazindol from dopamine transporter
[3] = molecular target: T1, Sodium-dependent dopamine transporter; test: Ability to displace [3H]-Mazindol from dopamine receptor
[4] = molecular target: T1, Sodium-dependent dopamine transporter; test: Inhibitory concentration required for [3H]dopamine uptake; not being isolated; type: functional
[5] = molecular target: T1, Sodium-dependent dopamine transporter; test: Ability to displace [3H]mazindol to dopamine receptor; not being isolated
[6] = molecular target: T1, Sodium-dependent dopamine transporter; test: Ability to displace [3H]mazindol from dopamine transporter
[7] = molecular target: T1, Sodium-dependent dopamine transporter; test: Binding constant for the ability to displace [3H]mazindol to dopamine receptor was calculated from the Cheng-Prusoff relationship
[8] = molecular target: T1, Sodium-dependent dopamine transporter; test: Binding constant for [3H]dopamine uptake was calculated from the Cheng-Prusoff relationship

T1 sequence (Q01959 whole entry): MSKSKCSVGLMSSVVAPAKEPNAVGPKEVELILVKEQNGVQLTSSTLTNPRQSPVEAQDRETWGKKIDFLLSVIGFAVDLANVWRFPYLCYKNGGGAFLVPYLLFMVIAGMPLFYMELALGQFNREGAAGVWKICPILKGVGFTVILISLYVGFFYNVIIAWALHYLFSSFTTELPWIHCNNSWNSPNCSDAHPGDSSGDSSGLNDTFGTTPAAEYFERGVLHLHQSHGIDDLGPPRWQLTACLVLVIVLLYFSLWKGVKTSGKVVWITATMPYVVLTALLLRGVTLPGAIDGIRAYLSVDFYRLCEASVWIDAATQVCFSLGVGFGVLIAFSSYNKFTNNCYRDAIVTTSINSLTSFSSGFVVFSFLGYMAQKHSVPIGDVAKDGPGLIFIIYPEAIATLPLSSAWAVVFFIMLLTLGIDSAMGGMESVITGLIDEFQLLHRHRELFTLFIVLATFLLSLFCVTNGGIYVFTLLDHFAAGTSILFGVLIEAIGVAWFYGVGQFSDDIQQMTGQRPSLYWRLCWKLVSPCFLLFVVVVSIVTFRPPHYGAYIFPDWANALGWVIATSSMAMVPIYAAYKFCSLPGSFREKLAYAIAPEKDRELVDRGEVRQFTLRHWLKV

Structure (SMILES): CN1C2CCC1[C@H](/C=C/Cl)[C@@H](c1ccc(Cl)cc1)C2 (stereo partly specified)
- IC50 [1]: 19 nM and 16 nM
- IC50 [2]: 24 nM and 18 nM

Structure (SMILES): CC[C@@H]1C2CCC(C[C@@H]1c1ccc(Cl)cc1)N2C (stereo partly specified)
- IC50 [1]: 2.6 nM
- IC50 [2]: 3.5 nM

Structure (SMILES): CN1C2CCC1[C@@H]([C@@H](O)C(F)(F)F)[C@@H](c1ccc(Cl)cc1)C2 (stereo partly specified)
- IC50 [1]: 10.5 nM
- IC50 [2]: 9.2 nM

Structure (SMILES): C=C[C@@H]1C2CCC(C[C@@H]1c1ccc(Cl)cc1)N2C (stereo partly specified)
- IC50 [3]: 1.2 nM
- IC50 [1]: 2.8 nM

Structure (SMILES): CN1C2CCC1[C@@H](C(=O)C(F)(F)F)[C@@H](c1ccc(Cl)cc1)C2 (stereo partly specified)
- IC50 [4]: not isolated
- IC50 [5]: not isolated

Structure (SMILES): CN1C2CCC1[C@H](C(=O)C(F)(F)F)[C@@H](c1ccc(Cl)cc1)C2 (stereo partly specified)
- IC50 [1]: 377 nM
- IC50 [2]: 1190 nM

Structure (SMILES): CN1C2CCC1[C@@H]([C@H](O)C(F)(F)F)[C@@H](c1ccc(Cl)cc1)C2 (stereo partly specified)
- IC50 [4]: not isolated
- IC50 [5]: not isolated

Structure (SMILES): COC(=O)C1C2CC[C@H](C[C@@H]1c1ccc(Cl)cc1)N2C (stereo partly specified)
- IC50 [6]: 1.7 nM
- IC50 [1]: 3.2 nM

Structure (SMILES): CN1C2CCC1[C@@H](/C=C/Cl)[C@@H](c1ccc(Cl)cc1)C2 (stereo in doubt; 4)
- IC50 [1]: 1.3 nM
- IC50 [2]: 0.73 nM

Structure (SMILES): CN1C2CCC1[C@@H](/C=C/Cl)[C@@H](c1ccc(Cl)cc1)C2 (stereo in doubt; 5)
- Ki [7]: 0.22 nM
- IC50 [1]: 0.99 nM
- Ki [8]: 0.88 nM
- IC50 [2]: 0.36 nM

Structure (SMILES): CN1C2CCC1[C@H](C(O)C(F)(F)F)[C@@H](c1ccc(Cl)cc1)C2 (stereo in doubt; 12)
- IC50 [1]: 125 nM
- IC50 [2]: 166 nM

Structure (SMILES): CN1C2CCC1[C@H](C(O)C(F)(F)F)[C@@H](c1ccc(Cl)cc1)C2 (stereo in doubt; 13)
- IC50 [1]: 525 nM
- IC50 [2]: 1100 nM
